Measured values reported in patent publication US9937151B2, “Carbapenem antibacterials with gram-negative activity” (priority 2010, dated 2018).

Test system: G(−) bacterial strains
Assay: Dilution antimicrobial susceptibility tests (MIC, NCCLS agar dilution / broth dilution)
Format: cell-based, Gram-negative organisms
Settings: unit assumed
Procedure: The MIC (minimum inhibitory concentration) was determined by the NCCLS (National Committee for Clinical Laboratory Standards) methods 2000. Methods for dilution antimicrobial susceptibility testing for bacteria that growth aerobically (M7-A5, vol. 20, No. 2). The agar dilution method for determining antimicrobial susceptibility was carried out using Mueller-Hinton agar. A final inoculum of 10^4 CFU/spot was applied with an inoculation device. Broth dilution tests were performed with 5×10^5 CFU/well in 96 well plates. The susceptibilities of streptococci were determined by Mueller-Hinton agar supplemented with 5% sheep blood. All assays were run with the indicated control strains, available from the ATCC (American Type Culture Collection, Rockville, Md.).
Abbreviations used in Table 1 are defined as follows: Cf-R: Ceftazidime Resistance, Ci-R: Ciprofloxacin Resistance, Gen-R: Gentamycin Resistance, Imp-R: Imipenem Resistance, Mp-R: Meropenem Resistance, Ofx-R: Ofloxacin Resistance, B+: β-lactamase Production, AmpC: AmpC-lactamase Hyper production, CBPase: Carbapenemase Production.

[1] = strain #1 Acinetobacter calcoaceticus
[2] = strain #2 Acinetobacter baumannii, Cf-R, Ci-R
[3] = strain #3 Acinetobacter baumannii, Cf-R, Ci-R, Mp-I
[4] = strain #4 Acinetobacter baumannii, Cf-R, Imp-I, CBPase
[5] = strain #7 Enterobacter aerogenes
[6] = strain #8 Enterobacter cloacae, Cf-R, B+
[7] = strain #9 Enterobacter cloacae, Cf-R
[8] = strain #10 Escherichia coli, Ci-R
[9] = strain #11 Escherichia coli, Ci-R, AmpC
[10] = strain #15 Klebsiella pneumoniae
[11] = strain #16 Moraxella catarrhalis
[12] = strain #21 Providencia rettgeri
[13] = strain #22 Salmonella typhimurium
[14] = strain #25 Shigella dysenteriae
[15] = strain #28 Stenotrophomonas maltophilia
[16] = strain #29 Pseudomonas aeruginosa
[17] = strain #30 Pseudomonas aeruginosa
[18] = strain #31 Pseudomonas aeruginosa, Ofx-R
[19] = strain #32 Pseudomonas aeruginosa, Cf-R
[20] = strain #33 Pseudomonas aeruginosa, Ci-R
[21] = strain #34 Pseudomonas aeruginosa, Gen-R
[22] = strain #35 Pseudomonas aeruginosa, Ip-R
[23] = strain #36 Pseudomonas aeruginosa, Cf-R, Ci-R, Mp-R

Measured: MIC

C[C@@H](O)C1C(=O)N2C(C(=O)O)=C(CN3CC[C@H](C(N)=O)C3)[C@H](C)C12 (stereo partly drawn) [Compound 12]
0.13 µg/mL: strain #5 Citrobacter diversus | [6] | [8] | [9] | strain #12 Escherichia coli
0.5 µg/mL: [1] | [2] | strain #14 Klebsiella oxytoca | [10] | strain #19 Proteus vulgaris | strain #23 Serratia marcescens
1 µg/mL: [4] | [5] | strain #18 Morganella Morganii | [12] | strain #24 Serratia marcescens | [18]
0.25 µg/mL: strain #6 Citrobacter freundii | [7] | strain #13 Escherichia coli | strain #20 Proteus mirabilis | [13] | [14] | strain #26 Shigella sonnei | strain #27 Shigella flexneri | [15]
8 µg/mL: [22]
2 µg/mL: [3] | strain #17 Morganella Morganii
≤ 0.008 µg/mL: [11]
32 µg/mL: [23]
4 µg/mL: [16] | [17] | [19] | [20] | [21]

CN[C@H]1CCN(CC2=C(C(=O)O)N3C(=O)C([C@@H](C)O)C3[C@H]2C)C1 (stereo partly drawn) [Compound 43]
16 µg/mL: [23]
0.25 µg/mL: strain #5 Citrobacter diversus | strain #6 Citrobacter freundii | [6] | [8] | [9] | strain #12 Escherichia coli | strain #13 Escherichia coli | strain #20 Proteus mirabilis | strain #26 Shigella sonnei | strain #27 Shigella flexneri
4 µg/mL: [3] | [4] | [16] | [19] | [20] | [21]
0.5 µg/mL: [1] | [7] | strain #14 Klebsiella oxytoca | [10] | [13] | [14] | [15]
2 µg/mL: strain #17 Morganella Morganii | strain #18 Morganella Morganii | [17]
≤ 0.008 µg/mL: [11]
8 µg/mL: [22]
1 µg/mL: [2] | [5] | strain #19 Proteus vulgaris | [12] | strain #23 Serratia marcescens | strain #24 Serratia marcescens | [18]

C[C@@H](O)C1C(=O)N2C(C(=O)O)=C(CN3CC[C@H](N(C)C)C3)[C@H](C)C12 (stereo partly drawn) [Compound 46]
16 µg/mL: [22]
32 µg/mL: [23]
0.5 µg/mL: strain #6 Citrobacter freundii | [7] | strain #14 Klebsiella oxytoca | [10] | [14] | [15]
0.25 µg/mL: strain #5 Citrobacter diversus | [6] | [8] | [9] | strain #12 Escherichia coli | strain #13 Escherichia coli | strain #20 Proteus mirabilis | [13] | strain #26 Shigella sonnei | strain #27 Shigella flexneri
≤ 0.008 µg/mL: [11]
4 µg/mL: [3] | [4] | [16] | [17] | [19] | [20] | [21]
2 µg/mL: [2] | strain #17 Morganella Morganii | strain #18 Morganella Morganii
1 µg/mL: [1] | [5] | strain #19 Proteus vulgaris | [12] | strain #23 Serratia marcescens | strain #24 Serratia marcescens | [18]

C[C@@H](O)C1C(=O)N2C(C(=O)O)=C(CN3CC[C@H](NCC(N)=O)C3)[C@H](C)C12 (stereo partly drawn) [Compound 83]
32 µg/mL: [21] | [22]
8 µg/mL: [3] | [4] | strain #17 Morganella Morganii | strain #18 Morganella Morganii | [18]
16 µg/mL: [16] | [17] | [19] | [20]
> 32 µg/mL: [23]
0.5 µg/mL: strain #5 Citrobacter diversus | [6] | [8] | [9] | strain #12 Escherichia coli | strain #27 Shigella flexneri
0.031 µg/mL: [11]
4 µg/mL: [2] | [5] | strain #19 Proteus vulgaris | [12]
1 µg/mL: strain #6 Citrobacter freundii | [7] | strain #13 Escherichia coli | [10] | strain #20 Proteus mirabilis | [13] | [14] | strain #26 Shigella sonnei | [15]
2 µg/mL: [1] | strain #14 Klebsiella oxytoca | strain #23 Serratia marcescens | strain #24 Serratia marcescens
